16 molecules from ChEMBL document CHEMBL1135190, “A comparison of the binding of three series of nicotinic ligands” (Bioorg Med Chem Lett, 2002) can be followed below.

As usually defined, the Ki is a measure of affinity in units of concentration, obtained from inhibition or displacement.

The target in the test is Neuronal acetylcholine receptor. The experiment in a line: Binding affinity towards nicotinic acetylcholine receptor using [3H]nicotine as radioligand in rat brain homogenates. Format: tissue-based.
With `CCN(C)Cc1ccc(Br)nc1`, the Ki came to 0.062 µM.

In turn, `CCN(C)CCOc1cccnc1` displayed a Ki of 0.022 µM.

Regarding `CN1CCCC1c1ccc(Br)nc1` (stereo unspecified), the Ki was 0.00045 µM.

`CCN(C)CCOc1cncc(Br)c1` came in with an inhibition constant (Ki) of 0.447 µM.

`CCN(C)Cc1cnc2cc3ccncc3cc2c1`: the affinity corresponds to a Ki of 1.11 µM.

In turn, `CCN(C)Cc1cnccc1F` showed a Ki of 0.093 µM.

The molecule `CCN(C)Cc1ccc(C)nc1` yielded a Ki of 0.066 µM.

`CCN(C)Cc1cnccc1Cl` returned a Ki of 0.041 µM.

Consider `CCN(C)CCOc1ccc(OC)nc1`, for which the affinity, expressed as Ki, was 4.07 µM.

`CCN(C)CCOc1ccc(Br)nc1` yielded a Ki of 0.29 µM.

For the molecule `CN1CCCC1c1cncc(Cl)c1` (stereo unspecified), affinity was put at a Ki of 0.00063 µM.

On to `c1ccc2ncc(C3CCCN3)cc2c1` (stereo unspecified), for which the Ki was determined as 0.093 µM.

`CCN(C)Cc1cncc(OC)c1`: the Ki was 0.115 µM.

For the molecule `CN1CCCC1c1cnc2cc3ccncc3cc2c1` (stereo unspecified), affinity was put at a Ki of 0.0112 µM.

`CCN(C)CCOc1cncc(OC)c1` showed a Ki of 0.016 µM.

The molecule `CN1CCCC1c1cncc(F)c1` (stereo unspecified) displayed a Ki of 0.00103 µM.
